Experimental data: PMC5374420, “In Search of Small Molecule Inhibitors Targeting the Flexible CK2 Subunit Interface” (Pharmaceuticals, 2017)
Where a SMILES comes first, the peptide text is derived from it. Bridges are numbered along the chain shown (N, C = ends).

What was measured:
786-0 = assay: Cell death of cancerous cell line; type: cell-based
[1] = test system: p21 Thr145 phosphorylation, survivin expression, AKT activation; assay: Western blot of intracellular events (AKT, phospho-p21 Thr145, survivin); type: cell-based
Experimental: This was confirmed using the LIVE&DEAD^TM cell viability assay that provides a visual readout of cell integrity (Figure 8A lower panel). This cellular effect was also analyzed after treatment of WT or CK2β-depleted MCF-10A cells with increasing concentrations of TAT-Pc 13. TAT-Pc 13 caused a cell death in both cell types, which was already detectable at a concentration of 25 µM and became massive at 50–60 µM (Figure 8B). […] In order to investigate the intracellular events induced by TAT-Pc 13, MCF-10A cells were incubated with increasing concentrations of TAT-Pc 13 and analyzed by Western blot.
Figure 8 Cellular effects of TAT-Pc 13. (A) MCF-10A cells were incubated with 25 µM of TAT-Pc 13 for 3 h and imaged with phase microscopy (upper panel) or with increasing concentrations of TAT-Pc 13 for 2 h and cell viability was evaluated using the LIVE&DEAD™ assay. Live cells fluoresce bright green (530 nm), whereas dead cells fluoresce red-orange (645 nm) (lower panel, scale bare: 100 µm); (B) WT (○-○) or CK2β-depleted (●-●) MCF-10A cells were incubated for 4 h with increasing concentrations of TAT-Pc 13 and cell death was evaluated using the LIVE&DEAD™ assay recording fluorescence at 645 nm. Representative data shown from two independent experiments in duplicate; (C) MCF-10A cells were pre-treated in the absence or presence of 20 µM z-VAD for 5 h and then incubated for 4 h with 25 µM random TAT-Pc 13 or TAT-Pc 13 and cell viability was evaluated as in (A) (scale bare: 100 µm); and (D) intracellular events induced by increasing concentrations of TAT-Pc 13. After 12 h of treatment, 786-O cells were lysed and analyzed by Western blot. TEXT PRINTED IN THE PICTURE: (B) TAT-Pc 13: TAT-Pc 13 (μM): 48; TAT-Pc 13 (μM): 60 DOUBTS OF THE COPYIST ABOUT THIS PICTURE: Panel B: 48 and 60 are printed in red at the x axis, where dashed lines drop from the two curves at about 50 on the Cell death (%) axis. No measure name (e.g. IC50) is printed with them. […]

WT MCF-10A cells = assay: Cell death / viability, LIVE&DEAD assay, WT cells; type: cell-based
Experimental: Figure 8 Cellular effects of TAT-Pc 13. (A) MCF-10A cells were incubated with 25 µM of TAT-Pc 13 for 3 h and imaged with phase microscopy (upper panel) or with increasing concentrations of TAT-Pc 13 for 2 h and cell viability was evaluated using the LIVE&DEAD™ assay. Live cells fluoresce bright green (530 nm), whereas dead cells fluoresce red-orange (645 nm) (lower panel, scale bare: 100 µm); (B) WT (○-○) or CK2β-depleted (●-●) MCF-10A cells were incubated for 4 h with increasing concentrations of TAT-Pc 13 and cell death was evaluated using the LIVE&DEAD™ assay recording fluorescence at 645 nm. Representative data shown from two independent experiments in duplicate; (C) MCF-10A cells were pre-treated in the absence or presence of 20 µM z-VAD for 5 h and then incubated for 4 h with 25 µM random TAT-Pc 13 or TAT-Pc 13 and cell viability was evaluated as in (A) (scale bare: 100 µm); and (D) intracellular events induced by increasing concentrations of TAT-Pc 13. After 12 h of treatment, 786-O cells were lysed and analyzed by Western blot. TEXT PRINTED IN THE PICTURE: (B) TAT-Pc 13: TAT-Pc 13 (μM): 48; TAT-Pc 13 (μM): 60 DOUBTS OF THE COPYIST ABOUT THIS PICTURE: Panel B: 48 and 60 are printed in red at the x axis, where dashed lines drop from the two curves at about 50 on the Cell death (%) axis. No measure name (e.g. IC50) is printed with them.
Cells were seeded in 96-well microtiter plates at a concentration of 1 × 10^5 cells/mL and were allowed to attach for 24 h at 37 °C in 5% CO2. Cells were then exposed to different concentrations of TAT-Pc 13 for the indicated time. Cell viability was evaluated using the fluorescence-based LIVE&DEAD™ assay (Molecular Probes, Thermo Fisher Scientific, Courtaboeuf, France) according to the manufacturer. Images were taken with an Apotome-equipped Zeiss Axioimager microscope (Zeiss, Oberkochen, German) recording the fluorescence at 530 nm (Live cells) and 645 nm (dead cells) respectively using a FluoStar Optima plate reader (BMG LabTech, Ortenberg, Germany).

CK2α–CK2β interaction = molecular target: T1, CK2α–CK2β interaction (Homo sapiens, UniProt P68400); assay: In vitro CK2α–CK2β interaction assay; type: binding; settings: read-out: inhibition of subunit interaction
T1 construct: made in house
Experimental: Figure 4 Inhibitory activity of a TAT-Pc analogue in vitro. (A) CK2 holoenzyme (100 nM) was incubated in the presence of increasing concentrations of TAT-Pc 13 for 15 min at 4 °C. CK2 activity was then determined with CK2β-dependent or independent peptide substrates; (B) [^35S]-labeled CK2α was incubated with biotinylated MBP-CK2β immobilized on streptavidin coated plates (preformed complex) in the absence (1) or presence (2) of TAT-Pc 13. Alternatively, [^35S]-labeled CK2α was incubated with TAT-Pc 13 (3) or random TAT-Pc 13 (4) and then with immobilized biotinylated MBP-CK2β. After washing, the amount of [^35S]-labeled CK2α remaining in the complex was determined by radioactivity counting. Representative data shown from two independent experiments. Results are presented as mean ± s.d. of triplicates.
The CK2α–CK2β interaction assay involved competition between plate-bound biotinylated MBP–CK2β and various cyclic peptides for binding to [^35S] methionine-labelled CK2α. The assay was performed as previously described in [15].

[2] = both WT and CK2β-depleted MCF-10A cells, 4 h

T1 sequence (P68400 whole entry): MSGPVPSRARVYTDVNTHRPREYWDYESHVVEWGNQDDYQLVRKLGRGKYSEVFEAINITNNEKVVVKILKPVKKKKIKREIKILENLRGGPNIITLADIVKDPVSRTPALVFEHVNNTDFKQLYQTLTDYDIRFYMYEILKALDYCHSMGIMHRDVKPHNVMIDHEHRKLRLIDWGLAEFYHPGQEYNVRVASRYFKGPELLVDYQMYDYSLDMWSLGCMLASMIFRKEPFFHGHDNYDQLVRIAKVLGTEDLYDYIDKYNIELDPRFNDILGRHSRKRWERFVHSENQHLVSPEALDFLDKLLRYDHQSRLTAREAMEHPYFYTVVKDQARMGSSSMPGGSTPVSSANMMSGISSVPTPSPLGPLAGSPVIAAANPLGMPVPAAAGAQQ

## CC[C@H](C)[C@@H]1NC(=O)[C@H](CCCCN)NC(=O)[C@H](Cc2ccccc2)NC(=O)CNC(=O)[C@H](Cc2ccc(O)cc2)NC(=O)[C@H](CC(C)C)NC(=O)[C@H](CCCNC(=N)N)NC(=O)CNC(=O)CNC(=O)[C@@H](NC(=O)[C@H](CCC(N)=O)NC(=O)[C@@H]2CCCN2C(=O)[C@@H]2CCCN2C(=O)[C@H](CCCNC(=N)N)NC(=O)[C@H](CCCNC(=N)N)NC(=O)[C@H](CCCNC(=N)N)NC(=O)[C@H](CCC(N)=O)NC(=O)[C@H](CCCNC(=N)N)NC(=O)[C@H](CCCNC(=N)N)NC(=O)[C@H](CCCCN)NC(=O)[C@H](CCCCN)NC(=O)[C@H](CCCNC(=N)N)NC(=O)CN)CCCCNC(=O)CNC(=O)CNC(=O)[C@H](Cc2c[nH]cn2)NC1=O [TAT-Pc 13] (H-GRKKRRQRRRPPQKGGRLYGFKIHGG; lactam 14-C; N-terminus assumed)
786-0
  induction of cell death: induce cell death
[1]; 12 h treatment, text says MCF-10A cells, Figure 8D legend says 786-O cells, read-out: EC50, phosphorylation of p21 on Thr145 and decrease of survivin expression
  EC50: 15 µM
[1]; increasing concentrations, 12 h
  AKT activation: no sign of AKT activation
WT MCF-10A cells; [2]
  concentration at which cell death became massive: 50 to 60 µM
  concentration at which cell death was already detectable: 25 µM
WT MCF-10A cells; three hours after addition, 25 µM (Figure 8A), phase microscopy
  cells rounded up and shrank: more than 50%
CK2α–CK2β interaction
  inhibition at 50 µM: 80%
